pEC50, pIC50: −log10 of the molar value.
Assays:
[1] = target: T1, HCV polymerase 1B (Δ21 NS5B) (Hepatitis C virus genotype 1b, UniProt P26663); experiment: HCV Polymerase Inhibition Assay (1b); assay type: biochemical
T1 construct: 20 to 50 nM Δ21 NS5B
Procedure: (§1) Reaction volume was 50 μL. The reaction was terminated by the addition of 1 volume of 4 mM spermine in 10 mM Tris-Cl pH 8.0, 1 mM EDTA. After incubation for at least 15 minutes at room temperature, the precipitated RNA was captured by filtering through a GF/B filter (Millipore) in a 96 well format. The filter plate was washed three times with 200 μL, each of 2 mM spermine, 10 mM Tris-Cl pH 8.0, 1 mM EDTA, and 2 times with ethanol. After air-drying, 30 μL, of Microscint 20 scintillation cocktail (Packard) was added to each well, and the retained cpm were determined by scintillation counting. […] Retained cpm were plotted vs. inhibitor concentration and fit to equation 1 using non-linear regression (ref. 1) to obtain the IC50 values: Retained cpm=A[sqrt{(IC50+It−Et)^2+4*IC50*Et}−(IC50+It−Et)]
(§2) Ref. Morrison, J. F. and S. R. Stone. 1985. Approaches to the study and analysis of the inhibition of enzymes by slow- and tight-binding inhibitors. Comments Mol. Cell. Biophys. 2: 347-368.
(§3) The sequence of the template RNA used was: 5′-[…] […] […] […] […] […] […] […] […] […] […] […] […] […] […] […] […]-3′ (SEQ ID NO: 1)

[2] = test system: genotype 1b-Con1 subgenomic replicon cell line; experiment: HCV Polymerase Replicon Assay (genotype 1b-Con1, luciferase reporter); assay type: cell-based; settings: Hepatitis C virus, 72 h, 1b-Con1 replicon, three days
[3] = target: T2, HCV polymerase 1A (Δ21 NS5B) (Hepatitis C virus genotype 1a, UniProt P27958); experiment: HCV Polymerase Inhibition Assay (1a); assay type: biochemical
T2 construct: 20 to 50 nM Δ21 NS5B
T2 sequence (P27958 2421-2990, stated change not applied): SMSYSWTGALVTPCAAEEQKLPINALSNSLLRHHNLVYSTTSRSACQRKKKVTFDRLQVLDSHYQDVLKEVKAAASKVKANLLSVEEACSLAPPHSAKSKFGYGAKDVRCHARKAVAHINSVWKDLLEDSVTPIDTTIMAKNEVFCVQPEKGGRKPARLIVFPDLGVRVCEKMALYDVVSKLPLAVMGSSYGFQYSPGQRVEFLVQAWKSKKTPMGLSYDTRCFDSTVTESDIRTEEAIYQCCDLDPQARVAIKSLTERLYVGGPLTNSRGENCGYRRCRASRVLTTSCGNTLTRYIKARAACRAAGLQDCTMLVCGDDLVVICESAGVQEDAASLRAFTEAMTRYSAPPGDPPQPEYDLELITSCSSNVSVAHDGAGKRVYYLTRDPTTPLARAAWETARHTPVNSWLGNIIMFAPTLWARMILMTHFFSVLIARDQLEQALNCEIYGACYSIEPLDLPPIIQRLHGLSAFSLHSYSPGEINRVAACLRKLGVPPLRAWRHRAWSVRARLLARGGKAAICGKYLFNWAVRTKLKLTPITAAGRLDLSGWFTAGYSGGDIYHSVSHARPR
Procedure: as §1, §2, §3

[4] = test system: genotype 1a-H77 subgenomic replicon cell line; experiment: HCV Polymerase Replicon Assay (genotype 1a-H77, luciferase reporter); assay type: cell-based; settings: Hepatitis C virus, 72 h, 1a-H77 replicon, three days

T1 sequence (P26663 2420-2989, stated change not applied): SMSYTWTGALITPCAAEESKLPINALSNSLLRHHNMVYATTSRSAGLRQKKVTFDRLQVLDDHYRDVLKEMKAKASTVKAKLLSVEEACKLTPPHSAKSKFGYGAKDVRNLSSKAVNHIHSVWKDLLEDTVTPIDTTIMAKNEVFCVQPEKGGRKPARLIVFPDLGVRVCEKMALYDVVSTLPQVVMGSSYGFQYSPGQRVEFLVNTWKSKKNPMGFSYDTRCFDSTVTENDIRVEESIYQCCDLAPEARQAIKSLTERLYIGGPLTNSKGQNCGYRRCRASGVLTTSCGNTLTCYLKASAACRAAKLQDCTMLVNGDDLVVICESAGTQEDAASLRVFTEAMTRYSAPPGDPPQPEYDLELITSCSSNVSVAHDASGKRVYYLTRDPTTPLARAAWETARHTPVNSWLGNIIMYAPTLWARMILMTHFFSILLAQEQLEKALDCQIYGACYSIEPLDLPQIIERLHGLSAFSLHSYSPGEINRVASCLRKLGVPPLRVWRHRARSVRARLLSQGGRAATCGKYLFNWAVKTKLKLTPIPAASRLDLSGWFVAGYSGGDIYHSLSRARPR

SMILES	pIC50 [1]	pEC50 [2]	pIC50 [3]	pEC50 [4]
COc1c(-c2ccc(/C=N/NS(C)(=O)=O)cc2)cc(N2CCCS2(=O)=O)cc1C(C)(C)C [compound 45, (E)-N′-((3′-tert-butyl-5′-(2-(1,1-dioxidoisothiazolidin-2-yl))-2′ methoxybiphenyl-4-yl)methylene)methanesulfonylhydrazide]	6.00 to 7.00	6.00 to 7.00	6.00 to 7.00	< 6.00
COc1c(-c2ccc3cc(NS(C)(=O)=O)ccc3c2)cc(N2CCCS2(=O)=O)cc1C(C)(C)C [compound 46, N-(6-(3-tert-butyl-5-(2-(1,1-dioxidoisothiazolidin-2-yl))-2-methoxyphenyl)naphthalene-2-yl)methanesulfonamide]	7.00 to 8.00	7.00 to 8.00	7.00 to 8.00	6.00 to 7.00
COc1c(-c2ccc3cc(NS(C)(=O)=O)ccc3c2)cc(NC(C)=O)cc1C(C)(C)C [compound 47, N-(3-tert-butyl-4-methoxy-5-(6-(methylsulfonamido)naphthalen-2-yl)phenyl)acetamide]	< 6.00	6.00 to 7.00	6.00 to 7.00	< 6.00
COc1c(Br)cc(-c2c[nH]c(=O)[nH]c2=O)cc1C(F)(F)F [compound 48, 5-(3-bromo-4-methoxy-5-(trifluoromethyl)phenyl)pyrimidine-2,4(1H,3H)-dione]	< 6.00	< 6.00	< 6.00	< 6.00
COc1c(-c2ccc3cc(NS(C)(=O)=O)ccc3c2)cc(-c2c[nH]c(=O)[nH]c2=O)cc1C(F)(F)F [compound 49, N-(6-(5-(2,4-dioxo-1,2,3,4-tetrahydropyrimidin-5-yl)-2-methoxy-3-(trifluoromethyl)phenyl)naphthalen-2-yl)methanesulfonamide]	7.00 to 8.00	≥ 8.00	> 8.00	7.00 to 8.00
COc1c(/C=C/c2ccc(NS(C)(=O)=O)cc2)cc(-c2c[nH]c(=O)[nH]c2=O)cc1C(F)(F)F [compound 50, (E)-N-(4-(5-(2,4-dioxo-1,2,3,4-tetrahydropyrimidin-5-yl)-2-methoxy-3-(trifluoromethyl)styryl)phenyl)methanesulfonamide]	7.00 to 8.00	7.00 to 8.00	7.00 to 8.00	6.00 to 7.00
COc1c(-c2ccc3c(CNS(C)(=O)=O)csc3c2)cc(-c2c[nH]c(=O)[nH]c2=O)cc1C(F)(F)F [compound 51, N-((6-(5-(2,4-dioxo-1,2,3,4-tetrahydropyrimidin-5-yl)-2-methoxy-3-(trifluoromethyl)phenyl)benzo[b]thiophen-3-yl)methyl)methanesulfonamide]	7.00 to 8.00	7.00 to 8.00	> 8.00	6.00 to 7.00
COc1c(-c2ccc3c(c2)CC=C3CNS(C)(=O)=O)cc(-c2cn(S(C)(=O)=O)c(=O)[nH]c2=O)cc1C(F)(F)F [compound 52, N-((6-(2-methoxy-5-(1-(methylsulfonyl)-2,4-dioxo-1,2,3,4-tetrahydropyrimidin-5-yl)-3-(trifluoromethyl)phenyl)-1H-inden-3-yl)methyl)methanesulfonamide]	7.00 to 8.00	≥ 8.00	7.00 to 8.00	6.00 to 7.00

From patent publication US9353091B2 (priority 2009, dated 2016)
